Measured values taken from patent US12083130B2, “Combination hormone formulations and therapies” (Caren Pharmaceuticals, Inc., priority 2019, dated 2024).

Assays:
hypogonadal men = conditions: 12-year study, hypogonadal men who received T; […] for men who did not; cited from earlier work
Aβ levels = conditions: mice, cyclic administration, high levels 10 days in a row every 30 days; cited from earlier work
[1] = system: cortical rat neurons intoxicated with human AβO 1-42; assay: Example 10: neuroprotection of cortical neurons intoxicated with human AβO 1-42; format: cell-based; conditions: BDNF 50 ng/ml; human AβO 1-42 10 μM, 24 h
Source text: This is a prophetic example. The 40 and 42 amino acid forms are the most abundant B-amyloid (Aβ) peptide forms found in AD brain senile plaques, as disclosed herein. However, the number of senile plaques in a particular region of the AD brain correlates poorly with the local extent of neuron death or synaptic loss, or with cognitive impairment (Sisodia et al., 1990). Studies have shown a robust correlation between the soluble human Aβ 1-42 oligomer (AβO) levels and the extent of synaptic loss and severity of cognitive impairment (Sakono et al., 2010). This example investigates the neuroprotective effect of the composition prepared as described in Example 2 on cortical neurons incubated for 24 hours in the presence of AβO, an in vitro model of AD (Callizot et al., 2013). Brain-derived neurotrophic factor (BDNF) is used as a positive control in this study.
Cortical rat neurons are cultured at +37° C. in a humidified air/CO2 (95/5) atmosphere. After 11 days of culture, cortical neurons are intoxicated with human AβO 1-42 at 10 μM for 24 hrs. […]
The total number of cortical neurons that survive after 24 h incubation are counted to determine the end point evaluation. […]

C[C@]12CC[C@H]3[C@@H](CCC4=CC(=O)CC[C@@]43C)[C@@H]1CC[C@@H]2O [T, testosterone]
rate of prostate cancer (hypogonadal men): 2.7%

CC(=O)[C@H]1CC[C@H]2[C@@H]3CCC4=CC(=O)CC[C@]4(C)[C@H]3CC[C@]12C [progesterone]
Aβ levels (Aβ levels): decreased Aβ levels

B1: BDNF: Brain-derived neurotrophic factor, positive control (protein, UniProt P23560 19-247, looked up)
Neurotrophic factor BDNF …: APMKEANIRGQGGLAYPGVRTHGTLESVNGPKAGSRGLTSLADTFEHVIEELLDEDQKVRPNEENNKDADLYTSRVMLSSQVPLEPPLLFLLEEYKNYLDAANMSMRVRRHSDPARRGELSVCDSISEWVTAADKKTAVDMSGGTVTVLEKVPVSKGQLKQYFYETKCNPMGYTKEGCRGIDKRHWNSQCRTTQSYVRALTMDSKKRIGWRFIRIDTSCVCTLTIKRGR
cell death resulting from AβO [1]: inhibits cell death resulting from AβO
